Data as given in US20200385371A1 (Propellon Therapeutics Inc., priority 2017, published 2020).
Like-named read-outs stand apart in the source and are kept apart here.

What was measured:
[1] = target: T1, WDR5 (Homo sapiens, UniProt P61964); assay: Surface Plasmon Resonance (SPR) assay; assay type: binding; parameters: Full length WDR5 with an N-terminal His tag and C-terminal AviTag; His tag (N); made in house; host or cells: E. coli
Description: Exemplary compounds of the application were dissolved in 100% DMSO at 10 mM, assayed fresh, and then stored at −20° C. for repeat studies and other experiments. Full length WDR5 with an N-terminal His tag and C-terminal AviTag (Avidity Inc.) was expressed in E. coli with coexpression of BirA to biotin label the protein in vivo. Purification was via Ni-NTA.
SPR studies were performed using a Biacore™ T200 instrument (GE Health Sciences Inc.). Biotinylated WDR5 protein (approximately 3000RU) was stably captured to streptavidin coupled SA chips according to the manufacture's protocol (GE Health Sciences Inc.). The running buffer used was HBS-EP (20 mM Hepes pH 7.4, 150 mM NaCl, 3 mM EDTA, 0.05% P-20) plus 5% DMSO with a flow rate of 40 μl/min. For SPR analysis, 5 different concentrations of each exemplary compound of the application were sprayed into 96 or 384 well plates using an HP D300 digital dispenser. The concentration ranged from about 195 nM to about 12 nM in a two-fold series. […] Curve fitting and KD calculations were performed with the Biacore T200 Evalutation software (GE Health Sciences Inc).

[2] = target: T1, WDR5; assay: Fluorescence Polarization (FP) binding assay
Description: H3 (1-15) ([…]), and 9-Ala-FAM ((Ac)-[…]-(Ahx-Ahx)-K(5,6-FAM)) (where Ahx represents 6 amino hexanoic acid linkers) peptides for WDR5 were synthesized, N-terminal-labeled with isothiocyanate-fluorescein, and purified by Tufts University Core Services (Boston, Mass.). Compound binding assays were performed at a constant labeled peptide concentration of 30 or 20 nM for H3 (1-15) and 9-Ala-FAM respectively. WDR5 concentrations of 0.3 μM for H3 (1-15) and 0.05 μM for 9-Ala-FAM were used. For both the H3 (1-15) and 9-Ala-FAM peptides, 80 mM sodium phosphate buffer (pH 6.5), 20 mM KCl, and 0.008% Triton X-100 was used. For the H3 (1-15) peptide, FP assays were measured in 10 μl aliquots in 384-well Axygen plates using a Synergy 4 microplate reader (BioTek) with an excitation wavelength of 485 nm and emission wavelength of 528 nm. For the 9-Ala-FAM peptide, FP assays were measured in 125 μl aliquots in 96 well Microfluor plates using a ViewLux instrument (Perkin Elmer) with an excitation wavelength of 480 nm and emission wavelength of 540 nm. To determine Kdsp values, the data were fit to a hyperbolic function using Sigma Plot software (Systat Software). The Kdisp values represent the average of quadruplicate measurements.

[3] = Table 2, effect of difluoro substitution, read-out: KD (SPR)

Structure (SMILES)	Kd ([1]; read-out: SPR Kd) [nM]	IC50 [2] [nM]	Kd [1, 3] [nM]
C[C@@H]1CN(c2cc(F)c(-c3ccc(OCC4CC4)nc3)c(F)c2NC(=O)c2c[nH]c(=O)cc2C(F)(F)F)C[C@H](C)N1C [Example 1, N-(3-(6-(cycloproylmethoxy)pyridin-3-yl)-2,4-difluoro-6-((3S,5R)-3,4,5-trimethylpiperazin-1-yl)phenyl)-6-oxo-4-(trifluoromethyl)-1,6-dihydropyridine-3-carboxamide]	0.59	–	–
C[C@@H]1CN(c2cc(F)c(-c3ccnc(OCC4CC4)c3)c(F)c2NC(=O)c2c[nH]c(=O)cc2C(F)(F)F)C[C@H](C)N1C [Example 3, N-(3-(2-(cyclopropylmethoxy)pyridin-4-yl)-2,4-difluoro-6-((3S,5R)-3,4,5-trimethylpiperazin-1-yl)phenyl)-6-oxo-4-(trifluoromethyl)-1,6-dihydropyridine-3-carboxamide]	3.39	26.6	–
C[C@@H]1CN(c2cc(F)c(-c3ccc(N4CCOCC4)nc3)c(F)c2NC(=O)c2c[nH]c(=O)cc2C(F)(F)F)C[C@H](C)N1C [Example 4, N-(2,4-difluoro-3-(6-morpholinopyridin-3-yl)-6-((3S,5R)-3,4,5-trimethylpiperazin-1-yl)phenyl)-6-oxo-4-(trifluoromethyl)-1,6-dihydropyridine-3-carboxamide]	2.02	31.8	–
C[C@@H]1CN(c2cc(F)c(-c3ccc(N4CCOCC4)cc3)c(F)c2NC(=O)c2c[nH]c(=O)cc2C(F)(F)F)C[C@H](C)N1C [Example 5, N-(2,6-difluoro-4′-morpholino-4-((3S,5R)-3,4,5-trimethylpiperazin-1-yl)-[1,1′-biphenyl]-3-yl)-6-oxo-4-(trifluoromethyl)-1,6-dihydropyridine-3-carboxamide]	3.55	32.2	–
COCCOc1ccc(-c2c(F)cc(N3C[C@@H](C)N(C)[C@@H](C)C3)c(NC(=O)c3c[nH]c(=O)cc3C(F)(F)F)c2F)cn1 [Example 6, N-(2,4-difluoro-3-(6-(2-methoxyethoxy)pyridin-3-yl)-6-((3S,5R)-3,4,5-trimethylpiperazin-1-yl)phenyl)-6-oxo-4-(trifluoromethyl)-1,6-dihydropyridine-3-carboxamide]	2.83	32.9	–
C[C@@H]1CN(c2cc(F)c(-c3ccc(OCC4CC4)cc3)c(F)c2NC(=O)c2c[nH]c(=O)cc2C(F)(F)F)C[C@H](C)N1C [Example 7, N-(4′-(cyclopropylmethoxy)-2,6-difluoro-4-((3S,5R)-3,4,5-trimethylpiperazin-1-yl)-[1,1′-biphenyl]-3-yl)-6-oxo-4-(trifluoromethyl)-1,6-dihydropyridine-3-carboxamide]	–	17.9	–
C[C@@H]1CN(c2cc(F)c(-c3cnc(N4CCO[C@@H](C)C4)nc3)c(F)c2NC(=O)c2cn(C)c(=O)cc2C(F)(F)F)C[C@H](C)N1C [Example 12, N-(2,4-difluoro-3-(2-((S)-2-methylmorpholino)pyrimidin-5-yl)-6-((3S,5R)-3,4,5-trimethylpiperazin-1-yl)phenyl)-1-methyl-6-oxo-4-(trifluoromethyl)-1,6-dihydropyridine-3-carboxamide formic Acid]	1.42	24.6	–
C[C@@H]1CN(c2cc(F)c(C3=CCCN(C(=O)OC4(C)CCC4)C3)c(F)c2NC(=O)c2c[nH]c(=O)cc2C(F)(F)F)C[C@H](C)N1C [Example 14, 1-Methylcyclobutyl 5-(2,6-difluoro-3-(6-oxo-4-(trifluoromethyl)-1,6-dihydropyridine-3-carboxamido)-4-((3S,5R)-3,4,5-trimethylpiperazin-1-yl)phenyl)-3,6-dihydropyridine-1(2H)-carboxylate]	1.88	10.2	–
C[C@@H]1CN(c2cc(F)c(C3=CCCN(c4ncccn4)C3)c(F)c2NC(=O)c2c[nH]c(=O)cc2C(F)(F)F)C[C@H](C)N1C [Example 15, N-(2,4-difluoro-3-(1-(pyrimidin-2-yl)-1,2,5,6-tetrahydropyridin-3-yl)-6-((3S,5R)-3,4,5-trimethylpiperazin-1-yl)phenyl)-6-oxo-4-(trifluoromethyl)-1,6-dihydropyridine-3-carboxamide]	1.69	21.1	–

Now from value to compound:

Kd ([1]; read-out: SPR Kd) [nM]	IC50 [2] [nM]	Kd [1, 3] [nM]	Structure (SMILES)
1.22	6.99	–	C[C@@H]1CN(c2cc(F)c(-c3cnc(N4CCO[C@@H](C)C4)nc3)c(F)c2NC(=O)c2ccc(F)cc2C(F)(F)F)C[C@H](C)N1C [Example 16, N-(2,4-difluoro-3-(2-((S)-2-methylmorpholino)pyrimidin-5-yl)-6-((3S,5R)-3,4,5-trimethylpiperazin-1-yl)phenyl)-4-fluoro-2-(trifluoromethyl)benzamide formic acid]
1.75	10.1	–	C[C@@H]1CN(c2ncc(-c3c(F)cc(N4C[C@@H](C)N(C)[C@@H](C)C4)c(NC(=O)c4cn(C)c(=O)cc4C(F)(F)F)c3F)cn2)CCO1 [Example 17, N-(2,4-difluoro-3-(2-((R)-2-methylmorpholino)pyrimidin-5-yl)-6-((3S,5R)-3,4,5-trimethylpiperazin-1-yl)phenyl)-1-methyl-6-oxo-4-(trifluoromethyl)-1,6-dihydropyridine-3-carboxamide formic acid]
1.71	11	–	C[C@@H]1CN(c2ncc(-c3c(F)cc(N4C[C@@H](C)N(C)[C@@H](C)C4)c(NC(=O)c4ccc(F)cc4C(F)(F)F)c3F)cn2)CCO1 [Example 18, N-(2,4-difluoro-3-(2-((R)-2-methylmorpholino)pyrimidin-5-yl)-6-((3S,5R)-3,4,5-trimethylpiperazin-1-yl)phenyl)-4-fluoro-2-(trifluoromethyl)benzamide formic acid]
5.31	31.6	–	C[C@@H]1CN(c2cc(F)c(C3=CCCN(C(=O)C(C)(C)C)C3)c(F)c2NC(=O)c2c[nH]c(=O)cc2C(F)(F)F)C[C@H](C)N1C [Example 19, N-(2,4-difluoro-3-(1-pivaloyl-1,2,5,6-tetrahydropyridin-3-yl)-6-((3S,5R)-3,4,5-trimethylpiperazin-1-yl)phenyl)-6-oxo-4-(trifluoromethyl)-1,6-dihydropyridine-3-carboxamide]
4.5	37.1	–	C[C@@H]1CN(c2cc(F)c(C3=CCCN(c4ncccn4)C3)c(F)c2NC(=O)c2c[nH]c(=O)cc2C(F)F)C[C@H](C)N1C [Example 21, N-(2,4-difluoro-3-(1-(pyrimidin-2-yl)-1,2,5,6-tetrahydropyridin-3-yl)-6-((3S,5R)-3,4,5-trimethylpiperazin-1-yl)phenyl)-4-(difluoromethyl)-6-oxo-1,6-dihydropyridine-3-carboxamide]
–	–	2.9	C[C@@H]1CN(c2ncc(-c3ccc(N4C[C@@H](C)N(C)[C@@H](C)C4)c(NC(=O)c4c[nH]c(=O)cc4C(F)(F)F)c3)cn2)C[C@H](C)O1 [reference compound]
–	–	48	C[C@@H]1CN(c2ncc(-c3cc(F)c(N4C[C@@H](C)N(C)[C@@H](C)C4)c(NC(=O)c4c[nH]c(=O)cc4C(F)(F)F)c3)cn2)C[C@H](C)O1 [reference compound]
–	–	1.8	C[C@@H]1CN(c2ncc(-c3ccc(N4C[C@@H](C)N(C)[C@@H](C)C4)c(NC(=O)c4c[nH]c(=O)cc4C(F)(F)F)c3F)cn2)C[C@H](C)O1 [reference compound]
